The assay has as its target T1, aPIIQGAP1 (C-terminal aPI binding domain of IQGAP1) (Homo sapiens, UniProt P46940).
T1 sequence (P46940 1551-1657): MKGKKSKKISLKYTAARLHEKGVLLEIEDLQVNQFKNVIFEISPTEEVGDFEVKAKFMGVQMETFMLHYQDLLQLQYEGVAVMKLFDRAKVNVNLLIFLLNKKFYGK
The assay can be described thus: TR-FRET competition. To be noted: displacement of biotinylated PtdInsP3 (2.5 pmol); 50 nM GST fusion. On the technique in general: TR-FRET usually uses a lanthanide donor and a delayed reading to cut background.

One may read the IC50 as the concentration that gives 50% inhibition. Lower therefore signals greater potency in that assay. With PtdInsP3, the IC50 was roughly 500 nM.
